In series [1] the test system is rats. Nature of the series: Urine osmolarity and urine volume after tracheal instillation of AVP during 5% glucose infusion. The series is classed as in vivo, rat. The following applies: 0.6 units AVP by tracheal instillation after 30 minutes of 5% glucose infusion at 10 ml/hr. On the procedure: The trachea was cannulated for drug delivery.
This example illustrates the effect of surfactant on pulmonary vasopressin (AVP) absorption. The experimental details were as follows. 5% glucose was infused at 10 ml/hr throughout the experiment. Urine osmolarity and urine volume resulting from glucose administration alone was contrasted with (1) a delivery of 0.6 units AVP, and (2) delivery of 0.6 units of AVP with 60 μl of surfactant (at a concentration of 40 mg/ml). In (1) and (2) the delivery of AVP and AVP with surfactant was by instillation through the trachea after 30 minutes of glucose infusion which infusion continued. FIGS. 3(a) and (b) show the results in term of urine osmolarity and volume respectively. Infusion of 5% glucose should have the effect of decreasing urine osmolarity and increasing urine volume.

The test system of series [2] is rats. Nature of the series: Blood glucose after intravenous or tracheal delivery of insulin in cannulated rats. As for the experimental part: A sufficient number of rats weighing between 350-400 g were selected. In each rat the carotid artery and jugular vein were cannulated for blood sampling and fluid infusion. The trachea was cannulated for drug delivery. Fluids given through the trachea were either in a volume of 100 μl or 200 μl given in two separate doses 30 minutes apart. 40 μl of insulin (at a concentration of 200 units/ml) was mixed with 60 μl of lung surfactant (at a concentration of 40 mg/ml) and was administered by the tracheal route. Insulin without surfactant was administered intravenously to a control sample.

`NC(=O)CC[C@@H]1NC(=O)[C@H](Cc2ccccc2)NC(=O)[C@H](Cc2ccc(O)cc2)NC(=O)[C@@H](N)CSSC[C@@H](C(=O)N2CCC[C@H]2C(=O)N[C@@H](CCCN=C(N)N)C(=O)NCC(N)=O)NC(=O)[C@H](CC(N)=O)NC1=O` [AVP, vasopressin]: the “effect on urine osmolarity” value in series [1] (FIG. 3(a)) is on record as “increases urine osmolarity”. The “effect on urine volume” value in series [1] (FIG. 3(b)) is “reduces urine volume”.

insulin: the “time after which glucose concentration begins to rise again” value in series [2] (intravenous insulin, FIG. 1(a)) was “approximately 60 mins”. In series [2] (tracheal delivery of 8 units (40 μl of 200 units/ml), hypoglycemic effect, FIG. 1(b)), the “intravenous insulin dose equivalent to tracheal delivery of 8 units of insulin” value was found to be 0.5 units. The “share of insulin that enters the bloodstream” value in series [2] (tracheal delivery of 8 units, estimated from the equivalent intravenous dose) was “about 6.25%”. In series [2] (tracheal delivery, over a three hour period, FIG. 1(b)), the “duration of hypoglycemic effect” value is recorded as “no significant increase in glucose concentration”.

These data come from patent publication US5451569A, “Pulmonary drug delivery system” (Hong Kong University of Science and Technology R & D …, priority 1994, dated 1995).
